US6063926A, “Substituted oximes as neurokinin antagonists” (Schering Corporation, priority 1998, dated 2000)

Key:
[1] = molecular target: NK1 receptor (Homo sapiens, UniProt P25103); experiment: neurokinin receptor binding assay, NK1 (Ki); settings: read-out: Ki (NK1)
From the text: (§1) The in vitro and in vivo activity of the compounds of formula I can be determined by various procedures known in the art, such as a test for their ability to inhibit the activity of the NK1 agonist Substance P, an isolated hamster trachea NK2 assay, a test of the effect of NK1 antagonists on Substance P-induced airway microvascular leakage, measurement of NK2 activity in vivo in guinea pigs, measurement of bronchoconstriction due to NKA, and neurokinin receptor binding assay(s). Typical procedures are described in WO96/34857, published Nov. 7, 1996. NK3 activity is determined by following a procedure similar to that described in the literature, e.g., Molecular Pharmacol., 48 (1995), p. 711-716.
(§2) % Inhibition is the difference between the percent of maximum specific binding (MSB) and 100%. The percent of MSB is defined by the following equation, wherein "dpm" is disintegrations per minute: [formula]
(§3) Using the test procedures described above, the following 35 data (Ki) were obtained for exemplified compounds: […]

[2] = molecular target: T1, NK2 receptor (Homo sapiens, UniProt P21452); experiment: neurokinin receptor binding assay, NK2 (Ki); settings: read-out: Ki (NK2)
T1 sequence (P21452 1-398): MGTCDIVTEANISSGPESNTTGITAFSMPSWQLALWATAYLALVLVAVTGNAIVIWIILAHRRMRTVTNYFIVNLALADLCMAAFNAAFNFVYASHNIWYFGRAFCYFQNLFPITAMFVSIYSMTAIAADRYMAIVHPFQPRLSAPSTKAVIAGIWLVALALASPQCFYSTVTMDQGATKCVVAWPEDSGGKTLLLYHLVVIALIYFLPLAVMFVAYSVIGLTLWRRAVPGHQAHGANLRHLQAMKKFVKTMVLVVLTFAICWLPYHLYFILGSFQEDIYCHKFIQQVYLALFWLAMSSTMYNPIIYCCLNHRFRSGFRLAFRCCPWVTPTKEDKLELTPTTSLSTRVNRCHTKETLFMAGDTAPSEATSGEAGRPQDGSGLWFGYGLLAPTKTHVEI
From the text: as §1, §2, §3

NK1 receptor, sequence (P25103 whole entry): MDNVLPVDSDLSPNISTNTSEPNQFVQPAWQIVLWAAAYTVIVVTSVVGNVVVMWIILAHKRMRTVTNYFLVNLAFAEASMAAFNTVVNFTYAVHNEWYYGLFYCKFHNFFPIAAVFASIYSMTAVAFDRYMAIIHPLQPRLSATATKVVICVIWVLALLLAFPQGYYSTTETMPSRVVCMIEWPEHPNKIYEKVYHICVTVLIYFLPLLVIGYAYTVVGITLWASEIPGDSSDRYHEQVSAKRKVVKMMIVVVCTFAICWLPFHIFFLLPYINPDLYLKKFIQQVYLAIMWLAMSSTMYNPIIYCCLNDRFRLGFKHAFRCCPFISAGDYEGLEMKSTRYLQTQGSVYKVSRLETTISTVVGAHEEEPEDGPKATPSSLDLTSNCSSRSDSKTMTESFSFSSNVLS

| Compound | Ki [1] [nM] | Ki [2] [nM] |
| --- | --- | --- |
| CON=C(N)CON=C(CN(C)C(=O)c1cc(C)cc(C)c1)C(CCN1CCC(N2CCCCC2=O)CC1)c1ccc(Cl)c(Cl)c1 (centres unmarked) [Example 18M] | 0.2 | 0.4 |
| Cc1cc(C)cc(C(=O)N(C)CC(=NOCC(N)=NO)C(CCN2CCC(N3CCCC(CC(=O)N(C)C)C3=O)CC2)c2ccc(Cl)c(Cl)c2)c1 (centres unmarked) [Example 19C] | 0.2 | 0.2 |
| CONC(=O)CON=C(CN(C)C(=O)c1cc(C)cc(C)c1)C(CCN1CCC(N2CCCC(CC(=O)N(C)C)C2=O)CC1)c1ccc(Cl)c(Cl)c1 (centres unmarked) [Example 19E] | 0.6 | 1.8 |
| COc1cc(C(=O)N(C)CC(=NOCC(N)=NO)C(CCN2CCC(N3CCCCC3=O)CC2)c2ccc(Cl)c(Cl)c2)cc(OC)c1C (centres unmarked) [Example 21B] | 6 | 0.5 |
| COc1cc(C(=O)N(C)CC(=NOCC(N)=NO)C(CCN2CCC(O)(c3ccccc3)CC2)c2ccc(Cl)c(Cl)c2)cc(OC)c1OC (centres unmarked) [Example 23] | 0.8 | 0.5 |
| CON=C(CN(C)C(=O)c1cc(C)cc(Cl)c1)C(CCN1CCC(N2CCCC(CC(=O)N(C)C)C2=O)CC1)c1ccc(Cl)c(Cl)c1 (centres unmarked) [Example 27] | 0.7 | 1.2 |
| CCN(CC(=NOC)C(CCN1CCC(N2CCCC(CC(=O)NC)C2=O)CC1)c1ccc(Cl)c(Cl)c1)C(=O)c1cc(Cl)cc(Cl)c1 (centres unmarked) [Example 28B] | 0.8 | 1 |
| CON=C(CNC(=O)c1cc(Cl)cc(Cl)c1)C(CCN1CCC(N2CCC[C@H](CC(N)=O)C2=O)CC1)c1ccc(Cl)c(Cl)c1 (some centres unmarked) [Example 29C] | 2.6 | 0.7 |
| CON=C(CN(C)C(=O)c1cc(C)nc(Cl)c1)C(CCN1CCC(O)(c2ccccc2)CC1)c1ccc(Cl)c(Cl)c1 (centres unmarked) [Example 30A] | 1.4 | 1.9 |
| Cc1cc(C(=O)N(C)CC(=NOCC(N)=NO)C(CCN2CCC(O)(c3ccccc3)CC2)c2ccc(Cl)c(Cl)c2)cc(Cl)n1 (centres unmarked) [Example 31] | 0.4 | 1.8 |
| CON=C(CN(C)C(=O)c1cc(Cl)cc(Cl)c1)C(CCN1CCC(c2ccccc2[S+](C)[O-])CC1)c1ccc(Cl)c(Cl)c1 (centres unmarked) [Example 36] | 0.8 | 1 |
| CON=C(N)CON=C(CN(C)C(=O)c1cc(OC)c(OC)c(OC)c1)C(CCN1CCC(O)(c2ccccc2)CC1)c1ccc(Cl)c(Cl)c1 (centres unmarked) [Example 37] | 0.7 | 0.7 |

Continued by falling Ki [1], values first:

| Ki [1] [nM] | Ki [2] [nM] | Compound |
| --- | --- | --- |
| 5.2 | 1.3 | CNC(=O)CC1CCCN(C2CCN(CCC(C(CNC(=O)c3cc(Cl)cc(Cl)c3)=NOC)c3ccc(Cl)c(Cl)c3)CC2)C1=O (centres unmarked) [Example 29B] |
| 1 | 1.3 | CON=C(CN(C)C(=O)c1cc(C)cc(Cl)c1)C(CCN1CCC(N2CCCCC2=O)CC1)c1ccc(Cl)c(Cl)c1 (centres unmarked) [Example 26] |
| 0.9 | 1.4 | Cc1cc(C)cc(C(=O)N(C)CC(=NOCC(=O)Nc2nncs2)C(CCN2CCC(N3CCCC(CC(=O)N(C)C)C3=O)CC2)c2ccc(Cl)c(Cl)c2)c1 (centres unmarked) [Example 19D] |
| 0.9 | 0.7 | CON=C(CN(C)C(=O)c1cc(Cl)cc(Cl)c1)C(CCN1CCC(N2CCCC(CC(=O)N3CCC(OC)CC3)C2=O)CC1)c1ccc(Cl)c(Cl)c1 (centres unmarked) [Example 25] |
| 0.6 | 0.3 | CNC(=O)CC1CCCN(C2CCN(CCC(C(CN(C)C(=O)c3cc(C)cc(C)c3)=NOC)c3ccc(Cl)c(Cl)c3)CC2)C1=O (centres unmarked) [Example 35] |
| 0.4 | 0.6 | CCN(CC(=NOC)C(CCN1CCC(N2CCC[C@H](CC(N)=O)C2=O)CC1)c1ccc(Cl)c(Cl)c1)C(=O)c1cc(Cl)cc(Cl)c1 (some centres unmarked) [Example 28C] |
| 0.3 | 3.4 | Cc1cc(C)cc(C(=O)N(C)CC(=NOCC(=O)N2CCSCC2)C(CCN2CCC(N3CCCCC3=O)CC2)c2ccc(Cl)c(Cl)c2)c1 (centres unmarked) [Example 18J] |
